Paper PMC10752957, “GABAA receptors as plausible molecular targets and mediators for taurine and homotaurine actions” (Frontiers in Pharmacology, 2023)
Several values for one entry are separate records, joined by “and”; a condition that tells them apart may be missing. Equal values may be shown once. Read-outs that look alike come from different tables or passages of the source.

What was measured:
GABAAR = test system: GABAAR; parameters: method as in Allan and Harris, 1986; conditions: ref Allan and Harris, 1986; cited from earlier work
rat = test system: rat; parameters: method as in Olive et al., 2002; conditions: fold lower doses than acetyl-HT, rat models; ref Olive et al., 2002; cited from earlier work
[1] = parameters: method as in Hey et al., 2018; conditions: ref Hey et al., 2018; cited from earlier work
[2] = molecular target: mouse brain native GABAARs; assay: 5 nM [3H]muscimol displacement from mouse brain (sans cerebellum) membranes; assay type: binding; conditions: n = 9; for IC50: 5 nM [3H]muscimol, mean ± SEM, read-out: IC50 for displacing [3H]muscimol binding
Method: Adult mouse brain (sans cerebellum) membrane pellets were prepared essentially as described by [Uusi-Oukari et al. (2014)], suspended in 50 mM Tris-HCl, pH 7.4 (assay buffer) and frozen at −80°C. For binding experiments, the suspension was thawed and washed by centrifugation/resuspension in assay buffer. 5 nM [^3H]muscimol binding was measured in assay buffer at room temperature (RT, ∼22°C) in a total volume of 300 µL. […] After 20 min incubation at room temperature the membranes were collected with a Brandel Cell Harvester (Model M-24, Gaithersburg, MD, United States) onto Whatman GF/B filters (Whatman International Ltd., Maidstone, United Kingdom). The samples were rinsed twice with 4–5 mL of ice-cold assay buffer. Filtration and rinsing steps took a total time of ∼15 s. Air-dried filters were immersed in 3 mL of Optiphase HiSafe 3 scintillation fluid (Wallac, Turku, Finland) and radioactivity determined in a Hidex 600 SL liquid scintillation counter (Hidex, Turku, Finland). [^3H]Muscimol displacement and electrophysiology data were analyzed with GraphPad Prism 7 software (GraphPad, San Diego, CA, United States). Data are presented as mean ± standard error of mean (SEM). Statistical data analysis was performed with a Student’s t-test (two-tailed distribution, unequal variance) in Microsoft Excel.

[3] = test system: native GABAARs in cerebellar granule cells; assay: Whole-cell patch clamp of cerebellar granule cells in mouse brain slices, cumulative concentration-response; assay type: cell-based; conditions: for Maximal current response (Imax ± SEM): 1 mM HT, 3 mM taurine, 3 mM GABA; for Maximal current response (Imax ± SEM) / Hill slope of the concentration-response curve / EC50: n = 7; for Concentration at which currents reach saturation / Threshold concentration for eliciting currents: cumulative application; for Hill slope of the concentration-response curve: normalized concentration-response curves; for EC50: read-out: EC50 for evoking GABAAR-mediated current, CGCs held at −70 mV, 10 μM DNQX, 0.3 μM TTX, room temperature, mean ± SEM
primary cultured neurons = test system: primary cultured neurons; parameters: method as in Gervais et al., 2007; conditions: 100 μM HT; ref Gervais et al., 2007; cited from earlier work
ρ1-GABAARs = test system: ρ1-GABAARs; parameters: method as in Ochoa-de la Paz et al., 2018; conditions: expressed in oocytes, ref Ochoa-de la Paz et al., 2018, cited from earlier work
[4] = test system: GABAARs in thalamocortical relay neurons; parameters: method as in Jia et al., 2008; conditions: ref Jia et al., 2008; cited from earlier work
mice = test system: mice; parameters: method as in Singh et al., 2023; conditions: taurine 1 g/kg per day, ref Singh et al., 2023; cited from earlier work
[5] = test system: chick embryonic neuronal cultures; parameters: method as in Louzada et al., 2004; conditions: 1 mM taurine; ref Louzada et al., 2004; cited from earlier work
[6] = test system: strychnine-sensitive glycine receptors; parameters: method as in Jia et al., 2008; conditions: ref Jia et al., 2008; cited from earlier work
rat brain GABAARs = test system: rat brain GABAARs; parameters: method as in Bureau and Olsen, 1991; conditions: ref Bureau and Olsen, 1991, read-out: Average IC50 for displacing [3H]muscimol; cited from earlier work

SMILES | IC50 ([2]; room temperature) | Hill slope of the [3H]muscimol displacement curve [2] | Maximal current response (Imax ± SEM) [3] [pA] | Concentration at which currents reach saturation [3] | Threshold concentration for eliciting currents [3] | Hill slope of the concentration-response curve [3] | EC50 [3] | also measured
NCCCS(=O)(=O)O [HT, Homotaurine] | 160 nM and 158 nM and ~200 nM | −0.79 ± 0.04 | −75 ± 7 | around 10 µM | ~100 nM | 0.79 ± 0.05 | 400 nM and 425 nM and ~400 nM | Concentration that stimulates GABAAR-mediated chloride flux (GABAAR): ≥ 100 µM; Dose that reduces alcohol intake, relative to acetyl-HT (rat): ~10 fold; Estimated average total brain 14C-HT [1]: 0.55 µM; IC50 [2]: 158 ± 10 nM; IC50 ([2]; room temperature, listed as Homotaurine): 158 ± 10 nM; Potency relative to GABA ([3]; times more potent than GABA): about 10 times; Sensitivity of native CGC GABAARs relative to recombinant ρ1-GABAARs ([3]; times more sensitive to HT): about 1000 times; Effect on neuronal death induced by 5 μM Aβ42 (primary cultured neurons): inhibited; Type of agonism on recombinant ρ1-GABAARs (ρ1-GABAARs): partial agonist; EC50 (ρ1-GABAARs; read-out: EC50 on recombinant ρ1-GABAARs): ~300000 nM
COc1ccc(-c2ccc(=N)n(CCCC(=O)O)n2)cc1 [Gabazine] | – | – | – | – | – | – | – | Block of currents evoked by 1 mM HT, 3 mM taurine and 3 mM GABA ([3]; applied together with saturating agonist): completely blocks
NCCS(=O)(=O)O [taurine, Taurine] | 125000 nM | −0.86 ± 0.04 | −67 ± 7 | around 3 mM | around 10 μM | 0.87 ± 0.06 | 116000 nM | Concentration that activates GABAARs [4]: ≥ 10 µM; Increase in life span (mice): 10%; Effect on neurotoxicity of 44 μM Aβ42 and glutamate receptor agonists [5]: prevented; Concentration that also activates strychnine-sensitive glycine receptors [6]: > 100 µM; IC50 (rat brain GABAARs): ~50000 nM
NCCCC(=O)O [GABA] | – | – | – | ~1 mM | 300 nM | 0.92 ± 0.13 | – | –
